According to US20230339939A1 (Bayer Aktiengesellschaft, priority 2020, published 2023):
pIC50: −log10 of the molar value.

How the values were obtained:
[1] = biological target: CSNK1A1 (Homo sapiens (Human), UniProt P48729); assay: CSNK1A1 Assay 1 (ADP-Glo, 1 μM ATP, substrate Btn-Ahx-[…]); type: biochemical; details: median, comparison compounds of WO 2016/120196 (Table 4), read-out: CSNK1A1 Assay 1 IC50 [mol/l] (median)
Description: CSNK1A1-inhibitory activity of compounds of the present invention in presence of 1 μM adenosine-tri-phosphate (ATP) was quantified employing the CSNK1A1 assay as described in the following paragraphs. In essence, the enzyme activity is measured by quantification of the adenosine-di-phosphate (ADP), which is generated as a co-product of the enzyme reaction, via the “ADP-Glo™ Kinase Assay” kit from the company Promega. This detection system works as follows: In a first step the ATP not consumed in the kinase reaction is quantitatively converted to cAMP employing an adenylate cyclase (“ADP-Glo-reagent”), then the adenylate cyclase is stopped and the ADP generated in the kinase reaction converted to ATP which generates in a luciferase-based reaction a glow-luminescence signal (“Kinase Detection Reagent”).
Recombinant fusion protein of N-terminal Glutathion-S-Transferase (GST) and full-length human CSNK1A1, expressed by baculovirus infected insect cells and purified via Glutathion affinity chromatography, was purchased from Life Technologies (product no. PV4174) and used as enzyme. As substrate for the kinase reaction the biotinylated peptide Btn-Ahx-[…] (C-terminus in amide form) was used which can be purchased e.g. from the company Biosyntan (Berlin-Buch, Germany). […]

[2] = biological target: wild-type Epidermal Growth Factor Receptor (EGFR) (Homo sapiens (Human), UniProt P00533); assay: WT-EGFR Kinase Assay (TR-FRET, 2 mM ATP); type: biochemical; details: read-out: EGFR Wildtype-2 mM ATP IC50 [mol/l] (median), comparison compounds of WO 2016/120196 (Table 4)
From the text: Inhibitory activity of compounds of the present invention against wild-type Epidermal Growth Factor Receptor (EGFR) was quantified employing the TR-FRET based EGFR assay as described in the following paragraphs.
Recombinant fusion protein of N-terminal Glutathion-S-Transferase (GST) and a fragment of human EGFR (amino acids R669 to A1210), expressed in Sf9 insect cells and purified via affinity chromatography using Glutathion Sepharose as described above, was used as kinase. As substrate for the kinase reaction the biotinylated peptide biotin-Ahx-[…] (C-terminus in amide form) was used which can be purchased e.g. form the company Biosynthan GmbH (Berlin-Buch, Germany).
For the assay 50 nl of a 100 fold concentrated solution of the test compound in DMSO was pipetted into either a black low volume 384 well microtiter plate or a black 1536 well microtiter plate (both Greiner Bio-One, Frickenhausen, Germany), 2 μL of a solution of EGFR in aqueous assay buffer [50 mM Hepes pH 7.0, 10 mM MgCl2, 1 mM dithiothreitol, 0.5 mM EGTA, 0.3 mM activated sodium ortho-vanadate, 0.005% (w/v) bovine serum albumin, 0.005% (v/v) Tween-20] were added and the mixture was incubated for 15 min at 22° C. to allow pre-binding of the test compounds to the enzyme before the start of the kinase reaction. […] The concentration of EGFR was adjusted depending of the activity of the enzyme lot and was chosen appropriate to have the assay in the linear range, typical concentration was 7.6 pg/μL. The reaction was stopped by the addition of 3 μL of a solution of HTRF detection reagents (83.3 nM streptavidine-XL665 [Cisbio Bioassays, Codolet, France] and 1.67 nM PT66-Tb-Cryptate, a terbium-cryptate labelled anti-phospho-tyrosine antibody from Cisbio Bioassays [instead of the PT66-Tb-cryptate PT66-Eu-Chelate from Perkin Elmer can also be used]) in an aqueous EDTA-solution (133.3 mM EDTA, 0.2% (w/v) bovine serum albumin in 50 mM HEPES pH 7.5).
The resulting mixture was incubated 1 h at 22° C. to allow the binding of the biotinylated phosphorylated peptide to the streptavidine-XL665 and the PT66-Tb-Cryptate. Subsequently the amount of phosphorylated substrate was evaluated by measurement of the resonance energy transfer from the PT66-Tb-Cryptate to the streptavidine-XL665. Therefore, the fluorescence emissions at 620 nm and 665 nm after excitation at 337 nm were measured in a HTRF reader, e.g. a Pherastar (BMG Labtechnologies, Offenburg, Germany) or a Viewlux (Perkin-Elmer). The ratio of the emissions at 665 nm and at 622 nm was taken as the measure for the amount of phosphorylated substrate.

CSNK1A1, sequence (P48729 whole entry): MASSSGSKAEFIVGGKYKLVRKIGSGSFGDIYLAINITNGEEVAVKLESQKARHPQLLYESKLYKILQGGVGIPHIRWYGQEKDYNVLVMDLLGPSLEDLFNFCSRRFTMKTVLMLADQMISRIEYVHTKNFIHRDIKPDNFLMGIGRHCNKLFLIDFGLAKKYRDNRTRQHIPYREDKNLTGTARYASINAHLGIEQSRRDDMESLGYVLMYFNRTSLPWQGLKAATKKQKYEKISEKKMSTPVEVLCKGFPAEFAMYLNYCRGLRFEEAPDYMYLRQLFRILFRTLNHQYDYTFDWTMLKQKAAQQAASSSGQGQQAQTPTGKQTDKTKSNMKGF

With “2-(4-fluorophenyl)-N-{4-[7-(2-oxopyrrolidin-1-yl)-3-(pyridin-2-yl)-1H-pyrrolo[3,2-b]pyridin-2-yl]pyridin-2-yl}acetamide [Example 40]” the pIC50 [1] was 7.62 and the pIC50 [2] was 7.07.
